Experimental data taken from ChEMBL document CHEMBL1201862, “PubChem BioAssay data set” (2004).
The source made the active and inactive calls.

Tests used:
[1] = molecular target: T1, Corticotropin-releasing factor receptor 2/Corticotropin-releasing factor-binding protein (Homo sapiens, UniProt P24387+Q13324); experiment: activators of CRF receptor 2 with binding protein – uHTS hits, confirmation (AID 602473); assay type: functional; details: read-out: EC50_Mean
T1 sequence (Q13324 whole entry): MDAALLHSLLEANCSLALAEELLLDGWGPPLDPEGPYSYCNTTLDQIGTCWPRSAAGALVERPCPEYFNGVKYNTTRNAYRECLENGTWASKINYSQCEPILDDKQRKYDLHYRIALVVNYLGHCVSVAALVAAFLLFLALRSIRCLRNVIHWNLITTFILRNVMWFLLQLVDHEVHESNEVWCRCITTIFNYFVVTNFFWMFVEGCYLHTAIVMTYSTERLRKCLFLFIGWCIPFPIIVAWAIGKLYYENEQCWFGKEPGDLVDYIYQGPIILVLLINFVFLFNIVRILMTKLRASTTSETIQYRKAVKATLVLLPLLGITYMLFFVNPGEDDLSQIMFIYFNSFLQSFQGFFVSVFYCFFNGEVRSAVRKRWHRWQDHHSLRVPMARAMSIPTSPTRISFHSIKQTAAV
T1 sequence (P24387 whole entry): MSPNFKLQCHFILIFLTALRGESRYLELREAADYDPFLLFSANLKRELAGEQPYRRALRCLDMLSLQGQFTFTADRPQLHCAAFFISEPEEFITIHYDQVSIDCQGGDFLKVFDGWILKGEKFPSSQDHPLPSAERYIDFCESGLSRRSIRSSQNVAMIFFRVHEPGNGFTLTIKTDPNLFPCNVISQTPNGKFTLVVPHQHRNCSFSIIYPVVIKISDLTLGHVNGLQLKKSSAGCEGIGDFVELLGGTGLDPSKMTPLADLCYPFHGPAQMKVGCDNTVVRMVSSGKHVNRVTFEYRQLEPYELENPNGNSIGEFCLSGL

cells [2] = assay type: functional, cell-based
cells [3] = assay type: functional, cell-based; remark: listed apart in the source
[4] = reduction of Shn3 3'UTR-driven luciferase in osteoblasts – cell-based, Clone20 osteoblasts, firefly luciferase, cherry-picked, dose response (AID 624132); assay type: functional;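 note: firefly luciferase luminescence from reporter carrying the Shn3 3'UTR in osteoblasts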
[5] = loss of viability in HepG2 cells – cell-based, CellTiter-Glo, cherry-picked, cytotoxicity control for Shn3 inhibitor project, dose response (AID 624134); assay type: functional
INS1 = experiment: INS-1E survival protection against cytokine death – cell-based, luminescence, retest, dose response (AID 449756); assay type: functional; details: Rattus norvegicus;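 note: cell death triggered by IL-1 beta plus TNF-alpha plus IFN-gamma mixture; protective hits raise ATP signal compared with cytokine alone wells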
[6] = molecular target: T2, High affinity choline transporter 1 (Homo sapiens, UniProt Q9GZV3); experiment: human choline transporter blockers, potency – cell-based, 5-point CRC, membrane potential dye, dose response (AID 504840); assay type: functional
T2 sequence (Q9GZV3 whole entry): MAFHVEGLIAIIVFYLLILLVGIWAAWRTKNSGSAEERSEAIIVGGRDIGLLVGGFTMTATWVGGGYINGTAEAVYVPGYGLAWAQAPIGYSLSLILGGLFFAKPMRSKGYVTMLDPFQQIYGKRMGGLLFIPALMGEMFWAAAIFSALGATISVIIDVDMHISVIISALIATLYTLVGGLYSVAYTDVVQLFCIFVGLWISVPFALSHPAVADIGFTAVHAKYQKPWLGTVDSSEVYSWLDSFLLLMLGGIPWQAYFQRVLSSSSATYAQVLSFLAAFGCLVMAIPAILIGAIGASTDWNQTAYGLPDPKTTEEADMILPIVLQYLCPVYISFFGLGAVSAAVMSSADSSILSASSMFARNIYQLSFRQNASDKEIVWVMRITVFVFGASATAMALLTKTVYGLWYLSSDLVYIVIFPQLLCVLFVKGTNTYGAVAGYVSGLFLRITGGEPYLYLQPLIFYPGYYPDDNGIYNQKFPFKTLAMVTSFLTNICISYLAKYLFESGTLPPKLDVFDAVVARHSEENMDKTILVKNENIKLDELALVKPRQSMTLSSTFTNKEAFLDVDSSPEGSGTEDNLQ

[7] = HIV-1 AD8 envelope cell-cell fusion blockers – cherry-pick, dose response (AID 652062); assay type: functional, cell-based;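 note: luciferase signal from cell-cell fusion driven by HIV-1 clade B AD8 Env; potency is for inhibitors of fusion seen as a drop in luminescence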
[8] = blockers of HIV-1 envelope-mediated cell-cell fusion – cherry-pick, dose response (AID 652057); assay type: functional, cell-based
[9] = blockers of HIV-1 ZM109 envelope-driven cell-cell fusion – HeLa effector, CEM target cells, luciferase, cherry-pick, dose response (AID 652058); assay type: functional, cell-based;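 note: luciferase signal from HIV-1 Env mediated cell-cell fusion of effector and target cells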
[10] = molecular target: T3, Polyadenylate-binding protein 1 (Homo sapiens, UniProt P11940); experiment: MLLE domain peptide-binding blockers, IC50 – biochemical, fluorescence polarization, FITC-PAM2 peptide, dose response (AID 602259); assay type: functional; details: read-out: IC50_Mean
T3 sequence (P11940 whole entry, the tested form may be a part): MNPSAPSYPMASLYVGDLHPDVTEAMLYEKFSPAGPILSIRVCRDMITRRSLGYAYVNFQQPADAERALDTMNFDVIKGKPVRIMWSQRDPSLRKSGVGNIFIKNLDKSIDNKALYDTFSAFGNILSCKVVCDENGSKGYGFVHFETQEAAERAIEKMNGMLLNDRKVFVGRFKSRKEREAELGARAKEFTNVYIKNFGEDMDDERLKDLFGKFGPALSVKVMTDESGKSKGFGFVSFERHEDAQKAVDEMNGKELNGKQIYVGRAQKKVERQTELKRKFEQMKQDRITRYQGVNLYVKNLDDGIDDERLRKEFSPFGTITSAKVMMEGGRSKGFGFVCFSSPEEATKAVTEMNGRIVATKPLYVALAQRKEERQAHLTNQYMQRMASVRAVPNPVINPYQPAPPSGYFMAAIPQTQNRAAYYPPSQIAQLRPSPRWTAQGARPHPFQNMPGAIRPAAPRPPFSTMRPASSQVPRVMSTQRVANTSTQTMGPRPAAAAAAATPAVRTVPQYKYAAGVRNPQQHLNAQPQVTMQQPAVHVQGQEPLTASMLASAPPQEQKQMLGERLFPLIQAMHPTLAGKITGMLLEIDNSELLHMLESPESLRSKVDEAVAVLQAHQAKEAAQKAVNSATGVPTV

[11] = molecular target: T3, Polyadenylate-binding protein 1; experiment: MLLE binding blockers, Cy5 peptide tracer – biochemical, fluorescence polarization, Cy5-PAM2 peptide, secondary, miRNA deadenylation inhibitor project, dose response (AID 602260); assay type: functional; details: read-out: IC50_Mean
[12] = microbe, parasite or virus in culture; assay type: functional; details: Mycobacterium tuberculosis
Protein RecA = molecular target: T4, Protein RecA (Mycobacterium tuberculosis, UniProt P9WHJ3); experiment: Fluorescence Cell-Free Homogeneous Dose Retest to Identify Inhibitors of RecA-Intein Splicing Activity. [Related pubchem assays (depositor defined):AID2097, AID2223, AID489010, AID492950]; assay type: functional
T4 sequence (P9WHJ3 whole entry): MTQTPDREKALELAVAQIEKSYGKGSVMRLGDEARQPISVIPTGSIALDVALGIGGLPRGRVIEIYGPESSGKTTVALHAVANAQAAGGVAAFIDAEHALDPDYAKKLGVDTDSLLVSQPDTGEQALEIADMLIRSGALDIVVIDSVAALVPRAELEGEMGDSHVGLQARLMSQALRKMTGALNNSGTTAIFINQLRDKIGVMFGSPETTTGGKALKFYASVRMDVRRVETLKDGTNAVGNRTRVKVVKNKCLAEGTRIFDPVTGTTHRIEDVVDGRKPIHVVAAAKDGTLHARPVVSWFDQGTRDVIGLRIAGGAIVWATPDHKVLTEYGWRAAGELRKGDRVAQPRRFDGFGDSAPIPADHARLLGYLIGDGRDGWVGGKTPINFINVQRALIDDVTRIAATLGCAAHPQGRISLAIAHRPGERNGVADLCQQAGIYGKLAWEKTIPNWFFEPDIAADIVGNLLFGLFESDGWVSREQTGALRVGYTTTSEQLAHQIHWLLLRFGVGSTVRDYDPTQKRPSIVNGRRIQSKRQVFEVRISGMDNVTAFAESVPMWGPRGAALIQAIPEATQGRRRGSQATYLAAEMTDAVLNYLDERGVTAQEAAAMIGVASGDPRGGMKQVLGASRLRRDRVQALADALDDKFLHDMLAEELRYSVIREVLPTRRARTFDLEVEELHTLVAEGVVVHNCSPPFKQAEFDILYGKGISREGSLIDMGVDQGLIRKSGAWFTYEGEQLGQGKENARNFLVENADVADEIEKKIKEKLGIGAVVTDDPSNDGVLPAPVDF

[13] = molecular target: T5, Replicative DNA helicase DnaB (Mycobacterium tuberculosis, UniProt P9WMR3); experiment: DnaB intein splicing inhibitors, dose response, biochemical, cell-free fluorescence (AID 449749); assay type: functional
T5 sequence (P9WMR3 whole entry): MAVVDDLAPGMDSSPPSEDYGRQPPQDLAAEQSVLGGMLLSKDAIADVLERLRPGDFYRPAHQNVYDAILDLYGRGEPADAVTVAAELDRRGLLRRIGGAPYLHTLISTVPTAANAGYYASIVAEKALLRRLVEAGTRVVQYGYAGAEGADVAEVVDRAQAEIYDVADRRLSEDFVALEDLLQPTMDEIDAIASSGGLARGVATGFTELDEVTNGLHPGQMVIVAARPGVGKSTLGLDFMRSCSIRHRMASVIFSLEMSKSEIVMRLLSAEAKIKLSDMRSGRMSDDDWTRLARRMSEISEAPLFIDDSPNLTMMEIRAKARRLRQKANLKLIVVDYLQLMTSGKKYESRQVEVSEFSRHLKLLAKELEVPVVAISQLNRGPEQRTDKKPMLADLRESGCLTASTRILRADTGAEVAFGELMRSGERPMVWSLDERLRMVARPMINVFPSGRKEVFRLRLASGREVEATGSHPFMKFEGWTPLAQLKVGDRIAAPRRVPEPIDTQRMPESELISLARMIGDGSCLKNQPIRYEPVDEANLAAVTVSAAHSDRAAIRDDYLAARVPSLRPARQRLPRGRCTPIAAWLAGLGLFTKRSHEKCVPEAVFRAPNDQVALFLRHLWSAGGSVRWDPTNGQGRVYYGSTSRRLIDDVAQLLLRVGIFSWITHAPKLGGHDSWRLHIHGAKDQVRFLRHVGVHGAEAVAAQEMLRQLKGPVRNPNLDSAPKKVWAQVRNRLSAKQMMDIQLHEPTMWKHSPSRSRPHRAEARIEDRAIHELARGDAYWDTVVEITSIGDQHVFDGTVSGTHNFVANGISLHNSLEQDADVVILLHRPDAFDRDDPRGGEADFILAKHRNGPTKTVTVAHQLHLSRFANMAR

[14] = molecular target: T6, Carboxy-terminal domain RNA polymerase II polypeptide A small phosphatase 1 (Homo sapiens, UniProt Q9GZU7); experiment: CTDSP1 inhibitors, concentration-response, biochemical, absorbance readout, ultra-high-throughput screen actives (AID 540297); assay type: functional
T6 sequence (Q9GZU7 whole entry): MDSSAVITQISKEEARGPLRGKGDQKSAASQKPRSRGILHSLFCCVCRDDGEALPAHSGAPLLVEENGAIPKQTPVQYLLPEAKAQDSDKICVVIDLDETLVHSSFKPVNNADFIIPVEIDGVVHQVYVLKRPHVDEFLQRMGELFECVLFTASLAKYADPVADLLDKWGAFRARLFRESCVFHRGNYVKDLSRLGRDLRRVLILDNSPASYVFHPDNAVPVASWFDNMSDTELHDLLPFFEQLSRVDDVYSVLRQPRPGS

CCOc1ccc(NC(=O)CN2C(=O)NC(C)(c3ccc(OC(F)F)cc3)C2=O)cc1 (configuration not stated)
EC50 [1]: 13.2 µM (active)

COc1cc(C(=O)N2CCN(C(=O)Cc3ccccc3)CC2)cc(OC)c1OC
EC50 (cells [2]): > 350 µM (not active)
EC50 (cells [3]): > 350 µM (not active)

CCOc1cc(C)c(S(=O)(=O)Nc2ccc3c[nH]nc3c2)cc1C
AC50 [4]: 4.89 µM (active)
AC50 [5]: 36 µM (active)
AC50 (INS1): 4.13 µM (active)

CCCCc1cc(-c2nnc(S)o2)c2ccccc2n1
IC50 [6]: 13.2 µM (active)

O=C(C[C@H]1C[C@@H]2c3cc(NS(=O)(=O)c4ccc(F)cc4)ccc3O[C@@H]2[C@H](CO)O1)NCc1ccc(Cl)cc1
AC50 [7]: 4.14 µM (active)
AC50 [8]: 1.72 µM (active)
AC50 [9]: 5.21 µM (active)

CN1CCN(C(=S)NC(=O)c2ccc(S(=O)(=O)N3CCOCC3)cc2)CC1
IC50 [10]: > 66 µM (inactive)
IC50 [11]: > 66 µM (inactive)

COc1cccc2sc3ccc(C#CC4(N)CCCCC4)cc3c(=O)c12
CC50 [12]: 20.1 µM (active)

CCCCC(O)(CCCC)C(=O)NN(C(=O)CCl)c1ccccc1
EC50 (Protein RecA): 2.45 µM (active)
AC50 [13]: 15 µM (active)
CC50 [12]: 12.1 µM (active)

COc1ccc(NC(=O)NNC(=O)c2ccc(-c3ccccc3)cc2)cc1
IC50 [14]: 4.6 µM (active)

Cc1ccc(S(=O)(=O)N2CCCCC2)cc1C(=O)Nc1cccnc1
IC50 [14]: 9.14 µM (active)

COc1ccc(N2C(=O)[C@@H]3C(c4cccnc4)=NO[C@@H]3C2=O)cc1
EC50 (cells [2]): > 350 µM (not active)
EC50 (cells [3]): > 350 µM (not active)

Nc1ccc2cccc(O)c2c1
IC50 [14]: 4.61 µM (active)

CCCCn1c(NCc2ccc3c(c2)OCO3)nc2ccccc21
CC50 [12]: 39.6 µM (active)
